From patent US20240287070A1, “FUSED HETEROCYCLIC DERIVATIVES” (Janssen Sciences Ireland Unlimited Company, priority 2021, published 2024)

Assays:
[1] = tested on: HBV (HepG2.117 cell line, inducibly HBV producing); test: Anti-HBV activity, intracellular HBV DNA by real-time PCR in HepG2.117 cell line; type: cell-based, hepatitis B virus; conditions: HepG2.117 cells, 3 days of treatment
Procedure, shortened: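 First, HBV replication is induced in HepG2.117 cells by doxycycline absence. Next, serially diluted compound is added for 3 days. Finally, intracellular HBV DNA is quantified by HBV-specific real-time PCR.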

HepG2 or HepG2.117 cells = test: Cytotoxicity, ATPlite Luminescence Assay; type: cell-based, human; conditions: 3-days incubation unless marked with *
Procedure, shortened: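 Incubate with compound for 3 or 4 days, then assess cell viability via ATPlite luminescence.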

[2] = Human liver microsome stability; type: in vitro ADME
Procedure, shortened: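 Half-life came from elimination rate constant (negative slope of ln compound/internal standard area ratio over time), measured by cassette LC-MS after acetonitrile quench. Human liver microsome reactions, one replicate per compound, were initiated with NADPH (1 mM final) and sampled at six points up to 60 min.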

[3] = pooled human liver microsomes 0.5 mg/mL, 1 μM compound, NADPH 1 mM, 37° C., 0-60 min

SMILES	EC50 [1] [µM]	CC50 (HepG2 or HepG2.117 cells) [µM]	HLM Metabolism t1/2 [2, 3] [h]	half-life at 1 μM ([2]; human, pooled human liver microsomes, pH 7.4, pooled human liver microsomes 0.5 mg/mL, 1 μM compound, NADPH 1 mM, 37° C., 0-60 min, read-out: HLM Metabolism t1/2) [h]	HLM Metabolism t1/2 ([2]; human, microsomes) [h]
C[C@@H]1Cc2nn3c(c2CN1C(=O)c1ccc(Cl)c(C(F)(F)F)c1)C(=O)N([C@@H](C)c1ccc([S@]2(=O)=NCCC2)nc1)C[C@H]3C (relative stereo) [Compound 30D, (3R,7R)-2-(4-chloro-3-(trifluoromethyl)benzoyl)-3,7-dimethyl-9-((S*)-1-(6-((S*)-1-oxido-4,5-dihydro-3H-116-isothiazol-1-yl)pyridin-3-yl)ethyl)-1,2,3,4,8,9-hexahydropyrido[4′,3′:3,4]pyrazolo[1,5-a]pyrazin-10(7H)-one]	0.047	> 50	0.255	–	–
CC(c1ccc(C(F)(F)F)nc1)N1C[C@@H](C)n2nc3c(c2C1=O)CN(C(=O)c1ccc(Cl)c(C#N)c1)[C@H](C)C3 (single isomer, unassigned) [Compound 12B, 2-Chloro-5-((3R,7R)-3,7-dimethyl-10-oxo-9-((S*)-1-(6-(trifluoromethyl)pyridin-3-yl)ethyl)-1,2,3,4,7,8,9,10-octahydropyrido[4′,3′:3,4]pyrazolo[1,5-a]pyrazine-2-carbonyl)benzonitrile]	0.068	> 50	>3	–	–
CC(c1cnc(C2CC2)cn1)N1C[C@@H](C)n2nc3c(c2C1=O)CN(C(=O)c1ccc(Cl)c(Cl)c1)[C@H](C)C3 (single isomer, unassigned) [Compound 3A, (3R,7R)-9-((R*)-1-(5-cyclopropylpyrazin-2-yl)ethyl)-2-(3,4-dichlorobenzoyl)-3,7-dimethyl-1,2,3,4,8,9-hexahydropyrido[4′,3′:3,4]pyrazolo[1,5-a]pyrazin-10(7H)-one]	0.068	33.7	–	> 3	–
C[C@@H]1Cc2nn3c(c2CN1C(=O)c1ccc(Cl)c(C(F)(F)F)c1)C(=O)N([C@@H](C)c1ccc([S@@](C)(=O)=NC#N)cc1)C[C@H]3C (relative stereo) [Compound 20C, N—((R*)-(4-((S*)-1-((3R,7R)-2-(4-chloro-3-(trifluoromethyl)benzoyl)-3,7-dimethyl-10-oxo-1,3,4,7,8,10-hexahydropyrido[4′,3′:3,4]pyrazolo[1,5-a]pyrazin-9(2H)-yl)ethyl)phenyl)(methyl)(oxo)-16-sulfaneylidene)cyanamide]	0.016	> 50	1.02	–	–
Cc1nnc(C(C)N2C[C@@H](C)n3nc4c(c3C2=O)CN(C(=O)c2ccc(Cl)c(Cl)c2)[C@H](C)C4)o1 (single isomer, unassigned) [Compound 43B, (3R,7R)-2-(3,4-dichlorobenzoyl)-3,7-dimethyl-9-((S*)-1-(5-methyl-1,3,4-oxadiazol-2-yl)ethyl)-1,2,3,4,8,9-hexahydropyrido[4′,3′:3,4]pyrazolo[1,5-a]pyrazin-10(7H)-one]	0.065	> 50	>3	–	–
CC(c1ccc(C(C)(C)O)cc1)N1C[C@@H](C)n2nc3c(c2C1=O)CN(C(=O)c1ccc(Cl)c(Cl)c1)[C@H](C)C3 (single isomer, unassigned) [Compound 8B, (3R,7R)-2-(3,4-dichlorobenzoyl)-9-((S*)-1-(4-(2-hydroxypropan-2-yl)phenyl)ethyl)-3,7-dimethyl-1,2,3,4,8,9-hexahydropyrido[4′,3′:3,4]pyrazolo[1,5-a]pyrazin-10(7H)-one]	0.009	18.7	>3	–	–
CC(c1cnc(N2CCOC[C@@H]2C)nc1)N1C[C@@H](C)n2nc3c(c2C1=O)CN(C(=O)c1ccc(Cl)c(C(F)(F)F)c1)[C@H](C)C3 (single isomer, unassigned) [Compound 38B, (3R,7R)-2-(4-chloro-3-(trifluoromethyl)benzoyl)-3,7-dimethyl-9-((S*)-1-(2-((S)-3-methylmorpholino)pyrimidin-5-yl)ethyl)-1,2,3,4,8,9-hexahydropyrido[4′,3′:3,4]pyrazolo[1,5-a]pyrazin-10(7H)-one]	0.012	28.4	0.642	–	–
CC(c1ccc(-c2ccn(C)n2)cc1)N1C[C@@H](C)n2nc3c(c2C1=O)CN(C(=O)c1ccc(Cl)c(C#N)c1)[C@H](C)C3 (single isomer, unassigned) [Compound 21B, 2-Chloro-5-((3R,7R)-3,7-dimethyl-9-((S*)-1-(4-(1-methyl-1H-pyrazol-3-yl)phenyl)ethyl)-10-oxo-1,2,3,4,7,8,9,10-octahydropyrido[4′,3′:3,4]pyrazolo[1,5-a]pyrazine-2-carbonyl)benzonitrile]	0.012	> 50	2.5	–	–
CC(c1cnc(C2CC2)cn1)N1C[C@@H](C)n2nc3c(c2C1=O)CN(C(=O)c1ccc(Cl)c(Cl)c1)[C@H](C)C3 (single isomer, unassigned) [Compound 3B, (3R,7R)-9-((S*)-1-(5-cyclopropylpyrazin-2-yl)ethyl)-2-(3,4-dichlorobenzoyl)-3,7-dimethyl-1,2,3,4,8,9-hexahydropyrido[4′,3′:3,4]pyrazolo[1,5-a]pyrazin-10(7H)-one]	0.023	16.4	2.22	–	–
Cc1ccc(C(C)N2C[C@@H](C)n3nc4c(c3C2=O)CN(C(=O)c2ccc(Cl)c(Cl)c2)[C@H](C)C4)nn1 (single isomer, unassigned) [Compound 6B, (3R,7R)-2-(3,4-dichlorobenzoyl)-3,7-dimethyl-9-((S*)-1-(6-methylpyridazin-3-yl)ethyl)-1,2,3,4,8,9-hexahydropyrido[4′,3′:3,4]pyrazolo[1,5-a]pyrazin-10(7H)-one]	0.065	> 50	>3	–	–
CNC(=O)c1ccc(C(C)N2C[C@@H](C)n3nc4c(c3C2=O)CN(C(=O)c2ccc(Cl)c(Cl)c2)[C@H](C)C4)cn1 (single isomer, unassigned) [Compound 24B, 5-((S*)-1-((3R,7R)-2-(3,4-dichlorobenzoyl)-3,7-dimethyl-10-oxo-1,3,4,7,8,10-hexahydropyrido[4′,3′:3,4]pyrazolo[1,5-a]pyrazin-9(2H)-yl)ethyl)-N-methylpicolinamide]	0.02	> 50	>3	–	–
Cc1nnn(-c2ccc(C(C)N3C[C@@H](C)n4nc5c(c4C3=O)CN(C(=O)c3ccc(Cl)c(Cl)c3)[C@H](C)C5)cc2)n1 (single isomer, unassigned) [Compound 22B, (3R,7R)-2-(3,4-dichlorobenzoyl)-3,7-dimethyl-9-((S*)-1-(4-(5-methyl-2H-tetrazol-2-yl)phenyl)ethyl)-1,2,3,4,8,9-hexahydropyrido[4′,3′:3,4]pyrazolo[1,5-a]pyrazin-10(7H)-one]	0.02	> 50	2.13	–	–
C[C@@H]1Cc2nn3c(c2CN1C(=O)c1ccc(Cl)c(C#N)c1)C(=O)N([C@@H](C)c1ccc(OC(F)F)cc1)C[C@H]3C (relative stereo) [Compound 1D, 2-Chloro-5-((3R,7R*)-9-((S*)-1-(4-(difluoromethoxy)phenyl)ethyl)-3,7-dimethyl-O-oxo-1,2,3,4,7,8,9,10-octahydropyrido[4′,3′:3,4]pyrazolo[1,5-a]pyrazine-2-carbonyl)benzonitrile]	0.021	> 50	–	–	>3
CC(c1ccc(N2CCCC2=O)cc1)N1C[C@@H](C)n2nc3c(c2C1=O)CN(C(=O)c1ccc(Cl)c(C#N)c1)[C@H](C)C3 (single isomer, unassigned) [Compound 9B, 2-Chloro-5-((3R,7R)-3,7-dimethyl-10-oxo-9-((S*)-1-(4-(2-oxopyrrolidin-1-yl)phenyl)ethyl)-1,2,3,4,7,8,9,10-octahydropyrido[4′,3′:3,4]pyrazolo[1,5-a]pyrazine-2-carbonyl)benzonitrile]	0.02	> 50	1.83	–	–
CC(c1ccc(=O)n(C)n1)N1C[C@@H](C)n2nc3c(c2C1=O)CN(C(=O)c1ccc(Cl)c(Cl)c1)[C@H](C)C3 (single isomer, unassigned) [Compound 55B, (3R,7R)-2-(3,4-dichlorobenzoyl)-3,7-dimethyl-9-((S*)-1-(1-methyl-6-oxo-1,6-dihydropyridazin-3-yl)ethyl)-1,2,3,4,8,9-hexahydropyrido[4′,3′:3,4]pyrazolo[1,5-a]pyrazin-10(7H)-one]	0.06	> 50	>3	–	–
Cc1ncc(C(C)N2C[C@@H](C)n3nc4c(c3C2=O)CN(C(=O)c2ccc(Cl)c(Cl)c2)[C@H](C)C4)cn1 (single isomer, unassigned) [Compound 4B, (3R,7R)-2-(3,4-dichlorobenzoyl)-3,7-dimethyl-9-((S*)-1-(2-methylpyrimidin-5-yl)ethyl)-1,2,3,4,8,9-hexahydropyrido[4′,3′:3,4]pyrazolo[1,5-a]pyrazin-10(7H)-one]	0.057	> 50	>3	–	–
CC(c1ccc(C(C)(C)O)nc1)N1C[C@@H](C)n2nc3c(c2C1=O)CN(C(=O)c1ccc(Cl)c(F)c1)[C@H](C)C3 (single isomer, unassigned) [Compound 59B, (3R,7R)-2-(4-chloro-3-fluorobenzoyl)-9-((S*)-1-(6-(2-hydroxypropan-2-yl)pyridin-3-yl)ethyl)-3,7-dimethyl-1,2,3,4,8,9-hexahydropyrido[4′,3′:3,4]pyrazolo[1,5-a]pyrazin-10(7H)-one]	0.055	> 50	>3	–	–
